Measured values from patent US8664221B2 (Santen Pharmaceutical Co., Ltd., priority 2008, dated 2014).

Experiments:
[1] = test system: IL-6 production induced by lipopolysaccharide (LPS) in human corneal epithelial cells (HCE-T); assay: Inhibition of LPS-induced IL-6 production in human corneal epithelial cells (GR agonist activity); type: cell-based; conditions: Corneal epithelial cell, 10 μL of 100 μM test compound solution per well, 4 hours incubation, efficacy relative to DEX
Experimental: In order to evaluate a GR agonist activity of the present compound, the inhibitory effects on the IL-6 production induced by lipopolysaccharide (LPS) in human corneal epithelial cells. IL-6 levels in the conditioned medium were measured using the HTRF human IL-6 Kit (boehringer-Ingelheim, Cat No. 62IL6PEB), and the procedure was carried out according to the protocol attached to the kit. Hereinafter, the specific method will be described.
LPS solution: After LPS was dissolved in phosphate buffer solution (hereinafter referred to as PBS(−)), the resulting solution was diluted with 10% FBS-DMEM/F12 medium, whereby a 1 μg/mL LPS solution was prepared.
After a test compound was dissolved in dimethylsulfoxide (hereinafter referred to as DMSO), the resulting solution was diluted with 10% FBS-DMEM/F12 medium, whereby a 100 μM test compound solution was prepared. A 100 μM DEX solution was prepared by the same method, and the inhibitory ratio of IL-6 production of DEX was evaluated to use for calculating efficacy (% DEX).
Used cell: SV40-immortalized human corneal epithelial cells (HCE-T) (RIKEN)
1) HCE-T cells were harvested, and seeded at 2.0×10^4 cells/0.1 mL/well in a 96-well plate.
2) After incubation overnight, the medium was removed and a 80 μL of new 10% FBS-DMEM/Ham's F12 medium was added into each well.
3) A 10 μL of test compounds solution was added into each well.
4) A 10 μL of LPS solution was added into each well.
5) As a negative control, a 10 μL of 10% FBS-DMEM/Ham's F12 medium was added into each well instead of a test compound solution and a LPS solution.
6) As a positive control, a 10 μL of 10% FBS-DMEM/Ham's F12 medium containing 1% DMSO was added into each well instead of a test compound solution.
7) After 4 hours incubation, supernatants were collected and IL-6 levels in the supernatants were quantitated using the HTRF human IL-6 Kit.
8) The inhibition ratio of IL-6 production (%) was calculated according to the following equation.
The inhibition ratio of IL-6 production (%) was calculated according to the following equation. The inhibition ratio of IL-6 production (%)=100×{1−(IL-6 level in each group−mean value of IL-6 level in negative control)/(mean value of IL-6 level in positive control−mean value of IL-6 level in negative control)} (%)
Furthermore, the inhibition ratio of IL-6 production (efficacy (% DEX)) was also calculated according to the following equation. Efficacy(% DEX)=100×{(mean value of IL-6 inhibition in compound-treated group)/(mean value of IL-6 inhibition in DEX-treated group)} (%) (Results and Discussion)

[2] = test system: carrageenan-induced paw edema model in rats; assay: Carrageenan-induced paw edema model; type: in vivo; conditions: female Lewis rat; 10 mg/kg oral, 30 minutes before carrageenan; paw volume 3 hr after injection; read-out: Inhibition ratio of paw edema (%)
Experimental: The inhibitory effect for paw edema using carrageenan-induced paw edema model in rats is known as one of the general methods for testing the inhibitory effect on inflammation on the joint and the like. Therefore, the inhibitory effect of the present compound for paw edema was carried out, the inhibition rate of paw edema was calculated, and then the anti-inflammatory effect of the present compound was evaluated based on the rate. The concrete method of the test is described below.
A 2 mg/mL test compound suspension was prepared by adding 1% methyl cellulose (base) to the test compound.
1) The weight and right hind paw volume of female Lewis rat (8˜10 weeks) were measured before drug administration.
2) The test compound suspension was administered at 10 mg/kg to the test compound group. Meanwhile, 1% methyl cellulose was administered orally at 5 mL/kg to the sham-operation group and vehicle group (control group).
3) After 30 minutes from oral administration, 0.1 mL of a 1% w/v carrageenan/distilled water solution was subcutaneously injected into right foot pad. 0.1 mL of distilled water was subcutaneously injected for sham-operation group.
4) The right hind paw volume was measured 3 hr after injection of carrageenan or distilled water.
(Formulation Concerning Estimation of Drug Activity) The increase ratio of paw volume (%)=100×(right hind paw volume 3 hr after injection of carrageenan or distilled water (mL)−right hind paw volume before the test compound administration (mL))/right hind paw volume before the test compound administration (mL) (Calculation Equation 1) The inhibition ratio of paw edema (%)=100−100×(the increase ratio of paw volume of each test compound group (%)−the increase ratio of paw volume of sham-operation group (%))/(the increase of paw volume of vehicle group (%)−the increase of paw volume of sham-operation group (%)) (Calculation Equation 2) (Test Results and Discussion)

[3] = test system: allergic conjunctivitis model in mice; assay: Inhibitory effect on vascular hyper-permeability in allergic conjunctivitis model; type: in vivo; conditions: male BALB/c mice, ovalbumin-sensitized; 1% (W/V) suspension instilled 15 min, 1 hr and 3 hrs before ovalbumin; Evans blue dye leakage; mean of 6 eyes
Experimental: In order to evaluate anti-allergic effect of the present compound, the inhibitory effect on the vascular hyper-permeability in allergic conjunctivitis model in mice was examined. This effect was calculated based on dye leakages of vehicle-treated group (control group) and test compound-treated group.
By adding 0.5% polysorbate 80/saline to the test compound, a 1% (W/V) test compound suspension was prepared.
1) Ovalbumin absorbed on aluminum hydroxide gel was dissolved in saline (20 μg ovalbumin/mL), and male BALB/c mice, 6 weeks old, were actively sensitized to the antigen by intraperitoneal injections of 500 μL of it.
2) On the 6th day from sensitization, sensitized mice were boosted by additional intraperitoneal injections of 500 μL ovalbumin absorbed on aluminum hydroxide gel (20 μg ovalbumin/mL).
3) On the 11th day, 12th day, 13th day, 14th day and 15th day from the first sensitization, allergic conjunctivitis were induced by instillations to the right eyes of the mice of […] of 50% glycerol solution containing 15% (W/V) ovalbumin.
4) […] of test compound suspension per eye was instilled to the right eye of the above mice 15 min, 1 hr and 3 hrs before ovalbumin instillation (three times) on the 15th day from sensitization. In vehicle-treated group (control group), the mice were instilled with 0.5% polysorbate 80/saline in substitution for test compound suspension.
5) Just before ovalbumin instillation on the 15th day from sensitization, all animals received a tail intravenous injection of 0.1% Evans blue dye. The right periocular tissues of the mice, which were the leaked parts of dye, were collected 30 min after ovalbumin instillation. The dye was extracted from the tissues with the dye extraction liquid. Then the absorbance of the dye extract was measured. The dye leakage was calculated from the absorbance value, and the inhibition ratio of the vascular hyper-permeability of test compound-treated group was calculated according to calculation equation 1. The inhibition ratio of the vascular hyper-permeability of test compound-treated group (%)=(1−Ax/Ao)×100 (Calculation Equation 1) • Ao: Dye leakage in vehicle-treated group (control group) • Ax: Dye leakage in test compound-treated group (Test Results and Discussion)

Structure (SMILES)	Emax [1]	inhibition in vivo at 10 mg/kg [2]	The inhibition ratio of the vascular hyper-permeability (%) [3]
COc1cc(OS(=O)(=O)C2CC2)ccc1-c1ccc2c(c1CNc1cc(F)ccc1C)N(C)C(=O)C(C)(C)N2	81%	52%	
CCCS(=O)(=O)Oc1ccc(-c2ccc3c(c2COc2cc(F)ccc2C)N(C)C(=O)C(C)(C)N3)c(OC)c1 [Compound No. 1-2, 8-(5-Fluoro-2-methylphenoxymethyl)-7-(2-methoxy-4-propyl-sulfonyloxyphenyl)-1,3,3-trimethyl-3,4-dihydro-1H-quinoxalin-2-one]	91%		37%
CCCCS(=O)(=O)Oc1ccc(-c2ccc3c(c2COc2cc(F)ccc2C)N(C)C(=O)C(C)(C)N3)c(OC)c1 [Compound No. 1-5, 7-(4-Butylsulfonyloxy-2-methoxyphenyl)-8-(5-fluoro-2-methyl-phenoxymethyl)-1,3,3-trimethyl-3,4-dihydro-1H-quinoxalin-2-one]	88%		30%
CCS(=O)(=O)Oc1ccc(-c2ccc3c(c2COc2cc(F)ccc2C)N(C)C(=O)C(C)(C)N3)c(OC)c1 [Compound No. 1-6, 7-(4-Ethylsulfonyloxy-2-methoxyphenyl)-8-(5-fluoro-2-methyl-phenoxymethyl)-1,3,3-trimethyl-3,4-dihydro-1H-quinoxalin-2-one]	86%	63%	
COc1cc(OS(=O)(=O)C(C)C)ccc1-c1ccc2c(c1COc1cc(F)ccc1C)N(C)C(=O)C(C)(C)N2 [Compound No. 1-7, 8-(5-Fluoro-2-methylphenoxymethyl)-7-(4-isopropylsulfonyloxy-2-methoxyphenyl)-1,3,3-trimethyl-3,4-dihydro-1H-quinoxalin-2-one]	94%	43%	
COc1cc(OS(=O)(=O)CC(C)C)ccc1-c1ccc2c(c1COc1cc(F)ccc1C)N(C)C(=O)C(C)(C)N2 [Compound No. 1-11, 8-(5-Fluoro-2-methylphenoxymethyl)-7-(4-isobutylsulfonyloxy-2-methoxyphenyl)-1,3,3-trimethyl-3,4-dihydro-1H-quinoxalin-2-one]	99%		20%
COc1cc(OS(=O)(=O)CCC(F)(F)F)ccc1-c1ccc2c(c1COc1cc(F)ccc1C)N(C)C(=O)C(C)(C)N2 [Compound No. 1-12, 8-(5-Fluoro-2-methylphenoxymethyl)-7-[2-methoxy-4-(3,3,3-trifluoro-propylsulfonyloxy)phenyl]-1,3,3-trimethyl-3,4-dihydro-1H-quinoxlin-2-one]	100%		15%
COc1cc(OS(=O)(=O)C2CCCC2)ccc1-c1ccc2c(c1COc1cc(F)ccc1C)N(C)C(=O)C(C)(C)N2 [Compound No. 1-16, 7-(4-Cyclopentylsulfonyloxy-2-methoxyphenyl)-8-(5-f1uoro-2-methylphenoxymethyl)-1,3,3-trimethly-3,4-dihydro-1H-quinoxalin-2-one]	91%		18%
CCCS(=O)(=O)Oc1ccc(-c2ccc3c(c2COC(=O)c2ccc(C)s2)N(C)C(=O)C(C)(C)N3)c(OC)c1 [Compound No. 1-22, 7-(2-Methoxy-4-propylsulfonyloxyphenyl)-8-(5-methylthiophen-2-ylcarbonyloxymethyl)-1,3,3-trimethyl-3,4-dihydro-1H-quinoxalin-2-one]	99%		21%
COc1cc(OS(=O)(=O)C(C)C)ccc1-c1ccc2c(c1COC(=O)c1ccc(C)s1)N(C)C(=O)C(C)(C)N2 [Compound No. 1-23, 7-(4-Isopropylsulfonyloxy-2-methoxyphenyl)-8-(5-methylthiophen-2-ylcarbonyloxymethyl)-1,3,3-trimethyl-3,4-dihydro-1H-quinoxalin-2-one]	83%		10%
COc1cc(OS(=O)(=O)C2CC2)ccc1-c1ccc2c(c1COc1cc([N+](=O)[O-])ccc1C)N(C)C(=O)C(C)(C)N2 [Compound No. 1-32, 7-(4-Cyclopropylsulfonyloxy-2-methoxyphenyl)-8-(2-methyl-5-nitrophenoxymethyl)-1,3,3-trimethyl-3,4-dihydro-1H-quinoxalin-2-one]	90%	61%	
CCCS(=O)(=O)Oc1ccc(-c2ccc3c(c2CNc2cc(F)ccc2C)N(C)C(=O)C(C)(C)N3)c(OC)c1 [Compound No. 1-44, 8-(5-Fluoro-2-methylphenylaminomethyl)-7-(2-methoxy-4-propyl-sulfonyloxyphenyl)-1,3,3-trimethyl-3,4-dihydro-1H-quinoxalin-2-one]	88%		22%
COc1ccccc1NCc1c(-c2ccc(OS(=O)(=O)C(C)C)cc2OC)ccc2c1N(C)C(=O)C(C)(C)N2 [Compound No. 2-5]	74%	40%	
COc1ccccc1NCc1c(-c2ccc(OS(=O)(=O)C3CCCC3)cc2OC)ccc2c1N(C)C(=O)C(C)(C)N2 [Compound No. 2-6, 7-(4-Cyclopentylsulfonyloxy-2-methoxypheny1)-8-(2-methoxyphenylaminomethyl)-1,3,3-trimethyl-3,4-dihydro-1H-quinoxalin-2-one]	82%		13%
CCCS(=O)(=O)Oc1ccc(-c2ccc3c(c2CNc2ccccc2OC)N(C)C(=O)C(C)(C)N3)c(OC)c1 [Compound No. 2-7, 8-(2-Methoxyphenylaminomethyl)-7-(2-methoxy-4-propylsulfonyl-oxyphenyl)-1,3,3-trimethyl-3,4-dihydro-1H-quinoxalin-2-one]	94%	52%	35%
